# Reference: PMC6664820, “Novel natural and synthetic inhibitors of solute carriers SGLT1 and SGLT2” (Pharmacology Research & Perspectives, 2019)
# Structures can show the parent of a compound that is named as a salt. Where two headings read alike, the source gives them in different places.
# Experiments:
# [1] = test system: CHO‐hSGLT1/2 cells; test: Cytotoxicity assay (ToxiLight, adenylate kinase leakage into CHO‐SGLT1/2 inhibition assay media); design: CYTOTOXICITY / CY[…], mean / CYTOTOXICITY (% of vehicle control) Mean / CYTOTOXICITY, mean / CY[…] (% of vehicle control) Mean: dose or concentration left out as unconfirmed; settings: for CY[…] 50 mM: at 50 mM (so in the source);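 for all read-outs here: bioluminescent read-out of adenylate kinase released from lysed cells into the medium, given relative to DMSO vehicle control defined as 0%, higher meaning more cytolysis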
# [2] = molecular target: T1, hSGLT2 (Homo sapiens, UniProt P31639); test: SGLT2 inhibition assay for validation of screening hits and similar compounds (1‐NBD‐glucose uptake, CHO‐hSGLT2 cells); type: cell-based; design: activity: dose or concentration left out as unconfirmed; settings: for activity: compound, normalized 1-NBD-glucose uptake, CHO-hSGLT2 cells; for activity / remaining activity at 5 µM / remaining activity at 50 µM: mean; for remaining activity at 5 µM / remaining activity at 50 µM: 0.5 h, concentration not given, read-out: NORMALIZED SGLT2 ACTIVITY (%); for SGLT2/SGLT1 ACTIVITY RATIO 5 uM Mean: ratio of normalized SGLT2 to SGLT1 activity at 5 uM
# T1 sequence (P31639 1-672): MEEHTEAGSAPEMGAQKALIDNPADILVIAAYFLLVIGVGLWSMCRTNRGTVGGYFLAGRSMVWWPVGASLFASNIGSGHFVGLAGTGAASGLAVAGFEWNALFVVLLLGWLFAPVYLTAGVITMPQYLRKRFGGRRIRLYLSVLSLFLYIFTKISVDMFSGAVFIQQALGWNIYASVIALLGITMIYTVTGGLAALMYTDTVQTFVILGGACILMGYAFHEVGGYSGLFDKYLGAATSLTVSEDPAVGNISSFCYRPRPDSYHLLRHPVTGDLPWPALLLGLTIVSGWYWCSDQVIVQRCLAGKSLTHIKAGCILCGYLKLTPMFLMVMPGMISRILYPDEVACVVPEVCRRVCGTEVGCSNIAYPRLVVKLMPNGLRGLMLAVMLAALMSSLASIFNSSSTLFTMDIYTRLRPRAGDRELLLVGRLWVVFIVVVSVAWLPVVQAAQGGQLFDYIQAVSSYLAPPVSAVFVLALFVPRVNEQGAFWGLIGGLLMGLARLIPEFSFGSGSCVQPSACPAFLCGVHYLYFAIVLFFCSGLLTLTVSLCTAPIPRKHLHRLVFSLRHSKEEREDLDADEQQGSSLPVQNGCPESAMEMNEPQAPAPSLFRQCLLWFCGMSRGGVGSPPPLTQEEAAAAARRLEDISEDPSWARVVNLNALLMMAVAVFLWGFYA
# [3] = molecular target: T2, SGLT1 (Homo sapiens, UniProt P13866); test: SGLT1 inhibition assay for validation of screening hits and similar compounds (1‐NBD‐glucose uptake, CHO‐hSGLT1 cells); type: cell-based; design: activity: dose or concentration left out as unconfirmed; settings: for remaining activity at 5 µM / remaining activity at 50 µM: 0.5 h, concentration not given, read-out: NORMALIZED SGLT1 ACTIVITY (%); for remaining activity at 5 µM / remaining activity at 50 µM / activity: mean; for activity: compound, normalized 1-NBD-glucose uptake, CHO-hSGLT1 cells; for inhibition at 50 µM: read-out: SGLT1 inhibition
# T2 sequence (P13866 1-664): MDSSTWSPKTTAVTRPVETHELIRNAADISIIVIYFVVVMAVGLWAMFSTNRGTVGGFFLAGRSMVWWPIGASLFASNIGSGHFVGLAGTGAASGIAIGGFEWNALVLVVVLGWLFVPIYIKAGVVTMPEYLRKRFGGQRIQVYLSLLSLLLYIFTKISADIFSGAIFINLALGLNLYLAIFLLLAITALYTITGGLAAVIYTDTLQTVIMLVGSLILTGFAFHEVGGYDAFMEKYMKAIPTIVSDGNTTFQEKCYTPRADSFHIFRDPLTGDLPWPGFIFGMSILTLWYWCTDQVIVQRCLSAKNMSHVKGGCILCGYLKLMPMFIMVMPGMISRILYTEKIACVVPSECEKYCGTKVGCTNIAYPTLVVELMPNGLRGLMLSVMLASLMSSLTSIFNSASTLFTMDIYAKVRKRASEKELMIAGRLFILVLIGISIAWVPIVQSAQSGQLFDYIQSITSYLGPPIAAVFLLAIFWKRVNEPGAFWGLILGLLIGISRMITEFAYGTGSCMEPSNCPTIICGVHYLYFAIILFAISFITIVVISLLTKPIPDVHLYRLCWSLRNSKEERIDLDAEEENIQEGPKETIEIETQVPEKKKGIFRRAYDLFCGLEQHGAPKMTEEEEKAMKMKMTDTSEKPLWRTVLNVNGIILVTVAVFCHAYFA
# [4] = mean inhibition with 50 μmol/L inhibitor
# [5] = SGLT1 and/or SGLT2, discussion statements
SMILES,remaining activity at 5 µM [2],remaining activity at 50 µM [2],remaining activity at 5 µM [3],remaining activity at 50 µM [3],also measured
CCN(CC)CCOC(=O)C(c1ccccc1)C1CCCCC1 (stereo not shown) [Drofenine HCl],–,–,–,–,CY[…] (% of vehicle control) Mean ([1]; mean): 1.71 % of vehicle control; activity [2]: 72%
CN1CCC(C#N)(c2ccccc2)CC1,105%,102%,109%,105%,–
c1ccc(CN2CCCCC2)cc1 [1-Benzylpiperidine],94%,93%,109%,102%,–
CN1CCC(N2CC[C@H](c3nc4ccccc4o3)C2)CC1,102%,106%,117%,114%,–
CN1CC[C@H](c2nc3ccccc3s2)C1,104%,112%,116%,116%,–
c1ccc(C23CCN(CC2)CC3)cc1 [4-Phenylquinuclidine],81%,60%,96%,72%,–
O=C(/C=C/c1ccc(O[C@@H]2O[C@H](CO)[C@@H](O)[C@H](O)[C@H]2O)cc1)c1ccc(O)cc1O [Isoliquiritin],–,–,–,–,"activity [2]: 98%; inhibition at 50 µM [2, 4]: 24%; SGLT2/SGLT1 ACTIVITY RATIO 5 uM Mean [2]: 1.0; SGLT2/SGLT1‐50μmol/L (ratio of SGLT2 to SGLT1 activities with 50 μmol/L inhibitor) [3]: 1.4; activity [3]: 96%; inhibition at 50 µM [3, 4]: 46%"
Cc1cccc(C)c1NC(=O)CN1CCCC1=O [Nefiracetam],87%,84%,95%,95%,–
"OC(CCN1CCCCC1)(c1ccccc1)C1CCCCC1 (stereo not shown) [Trihexyphenidyl, trihexyphenidyl, reference compound]",–,–,–,–,IC50 [2]: 20 µM; IC50 [3]: 12 µM; SGLT1/2 inhibition stated in words [3]: novel SGLT1/2 inhibitors; inhibition at 50 µM [3]: 69%
Oc1ccc(C=Cc2cc(O)cc3c2C(c2cc(O)cc(O)c2)C(c2ccc(O)cc2)O3)cc1 (stereo not drawn) [(−)‐ε‐viniferin],–,–,–,–,"inhibition at 50 µM [2, 4]: 35%; SGLT2/SGLT1‐50μmol/L (ratio of SGLT2 to SGLT1 activities with 50 μmol/L inhibitor) [3]: 0.6; SGLT1 inhibition [3, 4]: did not inhibit SGLT1"
Fc1ccccc1CN1CC[C@H](c2nnc(-c3ccco3)o2)C1,100%,94%,117%,117%,–
OC1(c2ccccc2)CCNC2CCCCC21 (stereo not shown) [4-Phenyldecahydro-4-quinolinol],94%,81%,98%,97%,–
"CCCCN1CCCC[C@H]1C(=O)Nc1c(C)cccc1C [levobupivacaine, reference compound]",73%,46%,74%,41%,"SGLT1/2 inhibition stated in words [3, 5]: novel SGLT1/2 inhibitors"
OC[C@H]1O[C@@H](Oc2cc(O)cc(/C=C/c3ccc(O)cc3)c2)[C@H](O)[C@@H](O)[C@@H]1O [Polydatin],–,–,–,–,"activity [2]: 97%; inhibition at 50 µM [2, 4]: 18%; SGLT2/SGLT1 ACTIVITY RATIO 5 uM Mean [2]: 1.0; SGLT2/SGLT1‐50μmol/L (ratio of SGLT2 to SGLT1 activities with 50 μmol/L inhibitor) [3]: 1.5; activity [3]: 94%; inhibition at 50 µM [3, 4]: 46%"
COc1ccc2ccc(=O)oc2c1C(OC(C)=O)C(=O)C(C)C (stereo not shown) [Hainanmurpanin],–,–,–,–,activity [2]: 108%; SGLT2/SGLT1 ACTIVITY RATIO 5 uM Mean [2]: 1.0; activity [3]: 110%
Oc1ccc(C=Cc2cc(O)cc3c2C(c2cc(O)cc(O)c2)C(c2ccc(O)cc2)O3)cc1 (stereo not drawn) [(+)‐ε‐viniferin],–,–,–,–,"IC50 ([2]; 1‐NBD‐glucose uptake, CHO‐hSGLT2, mean of n biological replicates, or individual measurements where n=2, read-out: SGLT2‐IC50 Mean): 110 µM; SGLT2 inhibition [2, 4]: little inhibition of SGLT2; IC50 ([3]; 1‐NBD‐glucose uptake, CHO‐hSGLT1, mean of n biological replicates, or individual measurements where n=2, read-out: SGLT1‐IC50 Mean): 58 µM; SGLT2/SGLT1‐50μmol/L (ratio of SGLT2 to SGLT1 activities with 50 μmol/L inhibitor) ([3]; listed as (+)‐ε‐Viniferin): 1.4; inhibition at 50 µM [3, 4]: 44%"
CC[C@H]1CN2CC[C@H]1C[C@H]2[C@H](O)c1ccnc2ccc(OC)cc12 [Dihydroquinine],94%,58%,99%,63%,–

SMILES,remaining activity at 5 µM [2],remaining activity at 50 µM [2],remaining activity at 5 µM [3],remaining activity at 50 µM [3],also measured
CN1CCc2cc3c(cc2C2OC(O)c4c(ccc5c4OCO5)C21)OCO3 (stereo not shown) [(Iso)rheagenine],–,–,–,–,activity [2]: 97%; SGLT2/SGLT1 ACTIVITY RATIO 5 uM Mean [2]: 0.857; activity [3]: 114%
Cc1ccccc1C(OCCN(C)C)c1ccccc1 (stereo not shown) [Orphenadrine HCl],–,–,–,–,CYTOTOXICITY (% of vehicle control) Mean ([1]; mean): 9 % of vehicle control
CN(C)CCN(Cc1cccs1)c1ccccn1 [Methapyrilene HCl],–,–,–,–,CY[…] 50 mM ([1]; mean): -16
CN[C@H]1CC[C@@H](c2ccc(Cl)c(Cl)c2)c2ccccc21 [Sertraline HCl],–,–,–,–,"CY[…], mean ([1]; ToxiLight, adenylate kinase leakage): -21"
CCN(CC)CCC(O)(c1ccccc1)C1CCCCC1 (stereo not shown),–,–,–,–,activity [2]: 69%; SGLT2/SGLT1 ACTIVITY RATIO 5 uM Mean [2]: 0.952; activity [3]: 72%
Oc1c(Cl)cc(Cl)c2cccnc12,114%,91%,115%,57%,–
C=C[C@H]1C[N@@]2CC[C@H]1C[C@@H]2[C@@H](O)c1ccnc2ccccc12 [Cinchonine],111%,105%,121%,112%,–
c1coc(-c2nnc([C@H]3CCN(C4CCCCC4)C3)o2)c1,98%,89%,122%,98%,–
CN1CCC[C@@H]1CCO[C@](C)(c1ccccc1)c1ccc(Cl)cc1 [Clemastine fumarate],–,–,–,–,CY[…] 50 mM ([1]; mean): 2.45
Oc1c(Br)cc(Br)c2cccnc12 [Broxyquinoline],100%,90%,110%,69%,–
"O[C@@H]1CCCC[C@H]1N1CCC(c2ccccc2)CC1 (racemic) [vesamicol, reference compound]",91%,71%,93%,51%,"SGLT1/2 inhibition stated in words [3, 5]: showed SGLT1/2 inhibition"
CC1(C)Oc2ccc3ccc(=O)oc3c2C[C@H]1O [(+)-Lomatin],–,–,–,–,activity [2]: 115%; SGLT2/SGLT1 ACTIVITY RATIO 5 uM Mean [2]: 0.9; activity [3]: 124%
Cc1cccc(C)c1NC(=O)CC12CCCN1CCC2 [Pilsicainide],90%,78%,94%,89%,–
OC(CCN1CCCC1)(c1ccccc1)C1CCCCC1 (stereo not shown) [Procyclidine HCl],–,–,–,–,activity [2]: 76%; activity [3]: 74%
Oc1ccc([C@H]2c3c(O)cc4c5c3[C@@H]([C@H](c3ccc(O)cc3)c3c(O)cc(O)cc3[C@H]5[C@@H](c3ccc(O)cc3)O4)[C@@H]2c2cc(O)cc(O)c2)cc1 [Viniferol D],97%,65%,100%,102%,"inhibition at 50 µM [2, 4]: 35%; SGLT2/SGLT1‐50μmol/L (ratio of SGLT2 to SGLT1 activities with 50 μmol/L inhibitor) [3]: 0.6; SGLT1 inhibition [3, 4]: no effect on SGLT1"
CC(C)(C)C(=O)C(Oc1ccc(Cl)cc1)n1cncn1 (stereo not shown) [Triadimefon],91%,76%,101%,58%,–
